Measurements as given in US20100298141A1, “SUBSTITUTED PYRIDINE N-OXIDE HERBICIDES” (E. I. DU PONT DE NEMOURS AND COMPANY, priority 2007, published 2010).

What was measured:
field bindweed = assay: Test F preemergence test; format: in vivo, Convolvulus arvensis; conditions: scale 0 to 100
How it was run: (§1)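 Greenhouse screen: test chemical in surfactant-containing non-phytotoxic solvent applied preemergence to sown seeds or postemergence to sugarcane plants; after 14 to 21 days each species scored visually versus controls.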

Surinam grass = assay: Test F preemergence test; format: in vivo, Brachiaria decumbens; conditions: scale 0 to 100
How it was run: as §1

catchweed bedstraw = assay: Test C pre-/postemergence test; format: in vivo, Galium aparine; conditions: for Plant response rating (0 to 100), Galium: 250 g ai/ha
How it was run: (§2)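 Test chemicals were formulated with surfactant in a non-phytotoxic solvent and sprayed both on freshly planted seeds (preemergence) and on 1- to 4-leaf plants of 2–18 cm (postemergence). Flooded-paddy pots received compound directly into 3 cm of standing water, maintained for the test.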

crabgrass = assay: Test A pre-/postemergence greenhouse test; format: in vivo, Digitaria sanguinalis; conditions: for Crabgrass, Large plant response rating: 0 to 100 scale; for Plant response rating, Crabgrass, Large: 0 to 100 scale where 0 is no effect and 100 is complete control
How it was run: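 Visual injury ratings against untreated controls, taken roughly ten days after treatment in greenhouse. Plants were sprayed postemergence at one- to two-leaf stage (2–10 cm tall); at the same time, seeded loam/sand soil received a directed preemergence spray. Formulation: non-phytotoxic solvent mixture with surfactant.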

Italian ryegrass = assay: Test F preemergence test; format: in vivo, Lolium multiflorum; conditions: scale 0 to 100
How it was run: as §1

goosegrass = assay: Test F preemergence test; format: in vivo, Eleusine indica; conditions: scale 0 to 100
How it was run: as §1

downy brome = assay: Test C pre-/postemergence test; format: in vivo, Bromus tectorum; conditions: for Plant response rating (0 to 100), Bromegrass, Downy: 250 g ai/ha
How it was run: as §2

southern sandbur = assay: Test F preemergence test; format: in vivo, Cenchrus echinatus; conditions: scale 0 to 100
How it was run: as §1

johnsongrass = assay: Test F preemergence test; format: in vivo, Sorghum halepense; conditions: scale 0 to 100
How it was run: as §1

green foxtail = assay: Test F preemergence test; format: in vivo, Setaria viridis; conditions: scale 0 to 100
How it was run: as §1

itchgrass = assay: Test F preemergence test; format: in vivo, Rottboellia cochinchinensis; conditions: scale 0 to 100
How it was run: as §1

large crabgrass = assay: Test F preemergence test; format: in vivo, Digitaria sanguinalis; conditions: scale 0 to 100
How it was run: as §1

common ragweed = assay: Test F preemergence test; format: in vivo, Ambrosia elation; conditions: scale 0 to 100
How it was run: as §1

[1] = 62 g ai/ha, Preemergence, scale 0 to 100
[2] = Preemergence, 31 g ai/ha, scale 0 to 100 (0 no effect, 100 complete control)
[3] = Postemergence, 125 g ai/ha, 0 is no effect, 100 is complete control
[4] = Postemergence, 500 g ai/ha, 0 is no effect, 100 is complete control
[5] = Preemergence, 125 g ai/ha, 0 no effect, 100 complete control
[6] = preemergence, 125 g ai/ha, scale 0 (no effect) to 100 (complete control)
[7] = 31 g ai/ha, Preemergence, scale 0 to 100
[8] = 62 g ai/ha, preemergence, scale 0 (no effect) to 100 (complete control)

Cc1cc[n+]([O-])c(S(=O)(=O)Cc2c(C(F)(F)F)nn(C)c2OCC(F)(F)F)c1 [Compound 31]
Plant response rating, Field Bindweed (field bindweed; 16 g ai/ha, preemergence): 0
Field Bindweed plant response rating (field bindweed; 62 g ai/ha, Preemergence): 40
Field Bindweed plant response rating (field bindweed; 125 g ai/ha, preemergence): 70
Plant response rating, Field Bindweed (field bindweed; Preemergence, 31 g ai/ha): 0
Plant response rating, Surinam Grass (Surinam grass; 16 g ai/ha, preemergence): 20
Surinam Grass plant response rating (Surinam grass; 125 g ai/ha, preemergence): 100
Plant response rating, Surinam Grass (Surinam grass; Preemergence, 62 g ai/ha): 95
Plant response rating, Surinam Grass (Surinam grass; Preemergence, 31 g ai/ha): 85
Galium plant response rating (catchweed bedstraw; [1]): 100
Plant response rating, Galium (catchweed bedstraw; [2]): 100
Plant response rating (0 to 100), Galium (catchweed bedstraw; Preemergence): 100
Crabgrass, Large plant response rating (crabgrass; [3]): 70
Crabgrass, Large plant response rating (crabgrass; [4]): 80
Crabgrass, Large plant response rating (crabgrass; [5]): 90
Plant response rating, Crabgrass, Large (crabgrass; Preemergence, 500 g ai/ha): 100
Plant response rating, Ryegrass, Italian (Italian ryegrass; 16 g ai/ha, preemergence): 50
Ryegrass, Italian plant response rating (Italian ryegrass; 125 g ai/ha, preemergence): 90
Plant response rating, Ryegrass, Italian (Italian ryegrass; Preemergence, 62 g ai/ha): 90
Plant response rating, Ryegrass, Italian (Italian ryegrass; Preemergence, 31 g ai/ha): 90
Plant response rating, Goosegrass (goosegrass; 16 g ai/ha, preemergence): 50
Goosegrass plant response rating (goosegrass; 62 g ai/ha, Preemergence): 100
Goosegrass plant response rating (goosegrass; 125 g ai/ha, preemergence): 100
Plant response rating, Goosegrass (goosegrass; Preemergence, 31 g ai/ha): 75
Bromegrass, Downy plant response rating (downy brome; [1]): 50
Plant response rating, Bromegrass, Downy (downy brome; [2]): 0
Plant response rating (0 to 100), Bromegrass, Downy (downy brome; Preemergence): 80
Bromegrass, Downy plant response rating (downy brome; [6]): 70
Plant response rating, Sandbur (southern sandbur; 16 g ai/ha, preemergence): 40
Sandbur plant response rating (southern sandbur; 125 g ai/ha, preemergence): 100
Plant response rating, Sandbur (southern sandbur; Preemergence, 62 g ai/ha): 100
Plant response rating, Sandbur (southern sandbur; Preemergence, 31 g ai/ha): 90
Plant response rating, Johnsongrass (johnsongrass; 16 g ai/ha, preemergence): 40
Johnsongrass plant response rating (johnsongrass; 62 g ai/ha, Preemergence): 100
Johnsongrass plant response rating (johnsongrass; 125 g ai/ha, preemergence): 100
Plant response rating, Johnsongrass (johnsongrass; Preemergence, 31 g ai/ha): 50
Plant response rating, Foxtail, Green (green foxtail; 16 g ai/ha, preemergence): 60
Foxtail, Green plant response rating (green foxtail; 62 g ai/ha, Preemergence): 100
Foxtail, Green plant response rating (green foxtail; 125 g ai/ha, preemergence): 100
Plant response rating, Foxtail, Green (green foxtail; Preemergence, 31 g ai/ha): 95
Plant response rating, Itchgrass (itchgrass; 16 g ai/ha, preemergence): 10
Itchgrass plant response rating (itchgrass; 62 g ai/ha, Preemergence): 60
Itchgrass plant response rating (itchgrass; 125 g ai/ha, preemergence): 80
Plant response rating, Itchgrass (itchgrass; Preemergence, 31 g ai/ha): 25
Plant response rating, Crabgrass, Large (large crabgrass; 16 g ai/ha, preemergence): 30
Crabgrass, Large plant response rating (large crabgrass; 125 g ai/ha, preemergence): 100
Plant response rating, Crabgrass, Large (large crabgrass; Preemergence, 31 g ai/ha): 95
Plant response rating, Ragweed (common ragweed; 16 g ai/ha, preemergence): 20
Ragweed plant response rating (common ragweed; 125 g ai/ha, preemergence): 100
Plant response rating, Ragweed (common ragweed; Preemergence, 62 g ai/ha): 90
Plant response rating, Ragweed (common ragweed; Preemergence, 31 g ai/ha): 75

Cn1nc(C(F)(F)F)c(CS(=O)(=O)c2cccc[n+]2[O-])c1OC(F)F [Compound 4]
Plant response rating, Field Bindweed (field bindweed; 8 g ai/ha, preemergence): 0
Field Bindweed plant response rating (field bindweed; 62 g ai/ha, Preemergence): 0
Plant response rating, Field Bindweed (field bindweed; Preemergence, 16 g ai/ha): 0
Plant response rating, Field Bindweed (field bindweed; Preemergence, 31 g ai/ha): 0
Plant response rating, Surinam Grass (Surinam grass; 8 g ai/ha, preemergence): 0
Plant response rating, Surinam Grass (Surinam grass; 16 g ai/ha, preemergence): 20
Plant response rating, Surinam Grass (Surinam grass; Preemergence, 31 g ai/ha): 100
Galium plant response rating (catchweed bedstraw; [7]): 70
Galium plant response rating (catchweed bedstraw; [8]): 90
Plant response rating (0 to 100), Galium (catchweed bedstraw; Preemergence): 100
Galium plant response rating (catchweed bedstraw; [6]): 100
Crabgrass, Large plant response rating (crabgrass; [3]): 80
Crabgrass, Large plant response rating (crabgrass; [4]): 80
Crabgrass, Large plant response rating (crabgrass; [5]): 100
Plant response rating, Crabgrass, Large (crabgrass; Preemergence, 500 g ai/ha): 100
Plant response rating, Ryegrass, Italian (Italian ryegrass; 8 g ai/ha, preemergence): 0
Ryegrass, Italian plant response rating (Italian ryegrass; 62 g ai/ha, Preemergence): 65
Plant response rating, Ryegrass, Italian (Italian ryegrass; Preemergence, 16 g ai/ha): 0
Plant response rating, Ryegrass, Italian (Italian ryegrass; Preemergence, 31 g ai/ha): 65
Plant response rating, Goosegrass (goosegrass; 8 g ai/ha, preemergence): 0
Goosegrass plant response rating (goosegrass; 62 g ai/ha, Preemergence): 98
Plant response rating, Goosegrass (goosegrass; Preemergence, 16 g ai/ha): 80
Plant response rating, Goosegrass (goosegrass; Preemergence, 31 g ai/ha): 98
Bromegrass, Downy plant response rating (downy brome; [7]): 0
Bromegrass, Downy plant response rating (downy brome; [8]): 0
Plant response rating (0 to 100), Bromegrass, Downy (downy brome; Preemergence): 70
Bromegrass, Downy plant response rating (downy brome; [6]): 0
Plant response rating, Sandbur (southern sandbur; 8 g ai/ha, preemergence): 25
Plant response rating, Sandbur (southern sandbur; 16 g ai/ha, preemergence): 90
Sandbur plant response rating (southern sandbur; 62 g ai/ha, Preemergence): 100
Plant response rating, Sandbur (southern sandbur; Preemergence, 31 g ai/ha): 100
Plant response rating, Johnsongrass (johnsongrass; 8 g ai/ha, preemergence): 5
Johnsongrass plant response rating (johnsongrass; 62 g ai/ha, Preemergence): 95
Plant response rating, Johnsongrass (johnsongrass; Preemergence, 16 g ai/ha): 75
Plant response rating, Johnsongrass (johnsongrass; Preemergence, 31 g ai/ha): 90
Plant response rating, Foxtail, Green (green foxtail; 8 g ai/ha, preemergence): 0
Foxtail, Green plant response rating (green foxtail; 62 g ai/ha, Preemergence): 95
Plant response rating, Foxtail, Green (green foxtail; Preemergence, 16 g ai/ha): 35
Plant response rating, Foxtail, Green (green foxtail; Preemergence, 31 g ai/ha): 70
Plant response rating, Itchgrass (itchgrass; 8 g ai/ha, preemergence): 0
Itchgrass plant response rating (itchgrass; 62 g ai/ha, Preemergence): 100
Plant response rating, Itchgrass (itchgrass; Preemergence, 16 g ai/ha): 0
Plant response rating, Itchgrass (itchgrass; Preemergence, 31 g ai/ha): 35
Crabgrass, Large plant response rating (large crabgrass; 62 g ai/ha, Preemergence): 100
Plant response rating, Crabgrass, Large (large crabgrass; Preemergence, 16 g ai/ha): 70
Plant response rating, Crabgrass, Large (large crabgrass; Preemergence, 31 g ai/ha): 70
Plant response rating, Ragweed (common ragweed; 8 g ai/ha, preemergence): 0
Ragweed plant response rating (common ragweed; 62 g ai/ha, Preemergence): 90
Plant response rating, Ragweed (common ragweed; Preemergence, 16 g ai/ha): 65
Plant response rating, Ragweed (common ragweed; Preemergence, 31 g ai/ha): 75
